Laboratory results: ChEMBL document CHEMBL3997847, “Development of a novel near-infrared fluorescent theranostic combretastain A-4 analogue, YK-5-252, to target triple negative breast cancer” (Bioorg Med Chem, 2017)
Calls of active or inactive are those of the source. The calls are words filed in the database; no cut-off is given here.

What was measured:
[1] = Retention time of the compound at 200 uM in presence of 50 mM GSH by HPLC analysis
Homo sapiens = species: Homo sapiens; test: Inhibition of beta-tubulin polymerization in human MDA-MB-231 cells at 50 nM after 1 hr by NucBlue staining based immunofluorescence microscopic assay; assay type: cell-based
MDA-MB-231 = test: Growth inhibition of human MDA-MB-231 cells after 72 hrs by MTT assay; assay type: cell-based; conditions: MDA-MB-231, 72 h

Compound | Retention time [1] [min] | inhibition (Homo sapiens) | GI50 (MDA-MB-231) [nM]
N#CC(C#N)=C1C=C(/C=C/c2ccc(N)cc2)Oc2ccccc21 | 8.6 | – | –
COc1ccc(/C=C\c2cc(OC)c(OC)c(OC)c2)cc1O [COMBRETASTATIN A4] | 6.8 | Active | 2.81
